Measurements taken from patent publication US11000033B2, “Ketone or oxime compound, and herbicide” (NISSAN CHEMICAL CORPORATION, priority 2014, dated 2021).

Key:
Format in all cases: in vivo
Monochoria vaginalis = experiment: Test Example 2: herbicidal activity, application during weed generation in submerged conditions (symbol C); settings: Table 23; application herbicide amount 320 g/ha; grade 0-5 by criteria of Test Example 1
Outline: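 Steps: fill pots with alluvial soil; add water to 4 cm depth; co-sow the three weeds; grow at 25° C. to 30° C. under glass; at 1–2 leaves, dose the floodwater with diluted emulsion; rate damage visually after 3 weeks.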

Cyperus difformis = experiment: Test Example 3: herbicidal effect by foliage application, Wagner pot (symbol E); settings: application herbicide amount 320 g/ha
Outline: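 Post-emergence, paddy-type test: seedlings 14 d old in shallow-flooded (0.1–0.5 cm) alluvial soil, 25–30 °C greenhouse. Emulsion diluted to target rate, sprayed on leaves. Read-out: visual effect on each species at 3 weeks, per set criteria.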

[1] = test system: directly sowed rice plant; experiment: Test Example 3: effect on crop by foliage application, Wagner pot (symbol b); settings: application herbicide amount 320 g/ha
Outline: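 Greenhouse culture at 25–30 °C of seeded rice, Cyperus difformis, Leptochloa chinensis and Echinochloa crus-galli var. crus-galli, in alluvial soil held under 0.1–0.5 cm of water in a Wagner pot.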

Setaria viridis = experiment: Test Example 4: herbicidal effect by soil treatment (symbol G); settings: application herbicide amount 320 g/ha
Outline: (§1)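 Seeds were sown in sterilized diluvial soil, covered with about 1.5 cm of soil, and the soil surface was sprayed with a water-diluted emulsion of the compound at a predetermined rate. Plants grew in a greenhouse at 25° C. to 30° C.; effects were scored visually 3 weeks after application.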

Apera spica-venti = experiment: Test Example 4: herbicidal effect by soil treatment (symbol L); settings: application herbicide amount 320 g/ha
Outline: as §1

Abutilon theophrasti = experiment: Test Example 4: herbicidal effect by soil treatment (symbol M); settings: application herbicide amount 320 g/ha
Outline: as §1

Amaranthus retroflexus = experiment: Test Example 4: herbicidal effect by soil treatment (symbol N); settings: application herbicide amount 320 g/ha
Outline: as §1

Stellaria media = experiment: Test Example 4: herbicidal effect by soil treatment (symbol P); settings: application herbicide amount 320 g/ha
Outline: as §1

rice = experiment: Test Example 4: effect on crop by soil treatment (symbol b); settings: application herbicide amount 320 g/ha
Outline: (§2)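 The test used sterilized diluvial soil. Seed was set down in spots and overlaid with about 1.5 cm of soil before growth in a greenhouse kept at 25° C. to 30° C.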

wheat [2] = experiment: Test Example 4: effect on crop by soil treatment (symbol e); settings: application herbicide amount 320 g/ha
Outline: as §2

Digitaria ciliaris = experiment: Test Example 5: herbicidal effect by foliage application, plastic box (symbol F); settings: 320 g/ha, 3 weeks after application
Outline: (§3)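 After sowing into sterilized diluvial soil and growing two weeks under glass at 25° C. to 30° C., seedlings receive a uniform foliar spray of diluted emulsion. Damage is judged visually three weeks on.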

Avena fatua = experiment: Test Example 5: herbicidal effect by foliage application, plastic box (symbol I); settings: 320 g/ha, 3 weeks after application
Outline: as §3

Alopecurus myosuroides = experiment: Test Example 5: herbicidal effect by foliage application, plastic box (symbol J); settings: 320 g/ha, 3 weeks after application
Outline: as §3

soybean = experiment: Test Example 5: effect on crop by foliage application, plastic box (symbol d); settings: 320 g/ha, 3 weeks after application
Outline: (§4)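 Box culture: sterile diluvial soil, seeds spot-sown, ~1.5 cm cover, raised under glass at 25–30° C.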

wheat [3] = experiment: Test Example 5: effect on crop by foliage application, plastic box (symbol e); settings: 320 g/ha, 3 weeks after application
Outline: as §4

beet = experiment: Test Example 5: effect on crop by foliage application, plastic box (symbol f); settings: 320 g/ha, 3 weeks after application
Outline: as §4

Row | SMILES | Herbicidal effect grade, C: Monochoria vaginalis (Monochoria vaginalis) | herbicidal effect on E, grade 0-5 (Cyperus difformis) | effect on crop b (directly sowed rice plant), grade 0-5 [1] | G (Setaria viridis) herbicidal effect grade (Setaria viridis) | L (Apera spica-venti) herbicidal effect grade (Apera spica-venti) | M (Abutilon theophrasti) herbicidal effect grade (Abutilon theophrasti) | N (Amaranthus retroflexus) herbicidal effect grade (Amaranthus retroflexus) | P (Stellaria media) herbicidal effect grade (Stellaria media) | b (directly sowed rice plant) effect on crop grade (rice) | e (wheat) effect on crop grade (wheat [2]) | F: Digitaria ciliaris, herbicidal effect grade (Digitaria ciliaris) | I: Avena fatua, herbicidal effect grade (Avena fatua) | J: Alopecurus myosuroides, herbicidal effect grade (Alopecurus myosuroides) | d: soybean, effect on crop grade (soybean) | e: wheat, effect on crop grade (wheat [3]) | f: beet, effect on crop grade (beet)
1 | CON=C(CC1CC(O)=C(c2c(C)cc(C)cc2C)C1=O)C(C)C (centres unmarked) [1-048] | 2 (Herbicidal ratio of 20% or higher and lower than 40%) | 5 (Herbicidal ratio of 90% or more (almost completely withered)) | 5 (Herbicidal ratio of 90% or more (almost completely withered)) | 5 (Herbicidal ratio of 90% or more (almost completely withered)) | 5 (Herbicidal ratio of 90% or more (almost completely withered)) | 3 (Herbicidal ratio of 40% or higher and lower than 70%) | 1 (Herbicidal ratio of 5% or higher and lower than 20%) | 0 (Herbicidal ratio of 5% or lower (almost no effect)) | 5 (Herbicidal ratio of 90% or more (almost completely withered)) | 2 (Herbicidal ratio of 20% or higher and lower than 40%) | 4 (Herbicidal ratio of 70% or higher and lower than 90%) | 4 (Herbicidal ratio of 70% or higher and lower than 90%) | 5 (Herbicidal ratio of 90% or more (almost completely withered)) | 0 (Herbicidal ratio of 5% or lower (almost no effect)) | 0 (Herbicidal ratio of 5% or lower (almost no effect)) | 1 (Herbicidal ratio of 5% or higher and lower than 20%)
2 | COCCOC1=C(c2c(C)cc(C)cc2C)C(=O)C(CC(C)=NOC)C1 (centres unmarked) [1-037] | 0 (Herbicidal ratio of 5% or lower (almost no effect)) | 0 (Herbicidal ratio of 5% or lower (almost no effect)) | 0 (Herbicidal ratio of 5% or lower (almost no effect)) | 0 (Herbicidal ratio of 5% or lower (almost no effect)) | 0 (Herbicidal ratio of 5% or lower (almost no effect)) | 0 (Herbicidal ratio of 5% or lower (almost no effect)) | 0 (Herbicidal ratio of 5% or lower (almost no effect)) | 0 (Herbicidal ratio of 5% or lower (almost no effect)) | 0 (Herbicidal ratio of 5% or lower (almost no effect)) | 0 (Herbicidal ratio of 5% or lower (almost no effect)) | 0 (Herbicidal ratio of 5% or lower (almost no effect)) | 0 (Herbicidal ratio of 5% or lower (almost no effect)) | 0 (Herbicidal ratio of 5% or lower (almost no effect)) | 0 (Herbicidal ratio of 5% or lower (almost no effect)) | 0 (Herbicidal ratio of 5% or lower (almost no effect)) | 0 (Herbicidal ratio of 5% or lower (almost no effect))
